From patent publication US7695731B2 (Cordis Corporation, priority 2004, dated 2010)
Each block holds one compound with its values, some of them ahead of it.

Tests used:
[1] = tested on: human smooth muscle cells; experiment: Cladribine Example, PDGF-stimulated proliferation of smooth muscle cells; type: cell-based
Experimental: (§1) To assess the ability of cladribine to prevent cell proliferation, human smooth muscle or endothelial cells (Clonetics, Walkersville, Md.) were seeded at a density of 2000 cells/cm^2 (approximately 3600 cells/well) into each well of 12-well plates and cultured with 1.5 ml of growth medium containing five percent fetal calf serum (FCS). After twenty-four hours, the growth medium was changed and fresh medium containing 10 ng/ml platelet-derived growth factor AB (PDGF AB; LIFE Technologies), as well as various concentrations of cladribine (0.001-10,000 nM) were added with triplicate wells. Medium was replaced with fresh cladribine-containing medium after three days. On day six, cells were detached by trypsinization to yield a cell suspension, lightly centrifuged to pellet and then counted manually using a Neubauer hemocytometer system. Cell viability was assessed by trypan blue exclusion.

[2] = tested on: human endothelial cells; experiment: Cladribine Example, PDGF-stimulated proliferation of endothelial cells; type: cell-based; conditions: EC, Cladribine 10.000 nM
Experimental: as §1

[3] = tested on: human coronary artery smooth muscle cells; experiment: Anti-proliferative activity in non-synchronized cultured cells stimulated with two percent fetal bovine serum; type: cell-based; conditions: for effect of addition on the anti-proliferative rapamycin dose response curve: non-synchronized cells treated with rapamycin, two percent fetal bovine serum
Source text: The multiple curves represent various concentrations of mycophenolic acid ranging from zero to one thousand nanomolar concentrations.
The multiple curves represent various concentrations of cladribine ranging from zero to nine hundred nanomolar concentrations.

[4] = In vivo release kinetics of cladribine from PVDF/HFP coating on Bx Velocity stents (FIG. 61); conditions: PVDF/HFP 85/15 basecoat 1800 μg (30 % cladribine), 300 μg topcoat, Yorkshire pig
Source text: FIG. 61 is a graphical representation of the in vivo release kinetics of cladribine from a polymeric coating on Bx Velocity® stents, available from Cordis Corporation, implanted in a Yorkshire pig. The basecoat comprises an 85/15 ratio of PVDF and HFP and cladribine for a total combined weight of one thousand eight hundred micrograms (cladribine comprising thirty percent of the total weight). The topcoat comprises an 85/15 ratio of PVDF/HFP and no cladribine. The total weight of the topcoat is three hundred micrograms.

[5] = In vivo release kinetics from rapamycin/cladribine EVA/BMA basecoat, porcine pharmacokinetics studies (FIG. 62, 63); conditions: EVA/BMA basecoat with 200 μg BMA topcoat, Yorkshire pigs
Source text: (§2) The basecoat is applied to Bx Velocity® stents and implanted into Yorkshire pigs.
as §2

[6] = tested on: cell viability; experiment: Cell viability assay; type: cell-based
[7] = tested on: human coronary artery smooth muscle cells; experiment: Anti-proliferative activity in synchronized cultured cells stimulated with two percent fetal bovine serum; conditions: synchronized cells treated with rapamycin
[8] = In vivo release kinetics from rapamycin/mycophenolic acid EVA/BMA basecoat, porcine pharmacokinetics studies (FIG. 53, 54); conditions: EVA/BMA basecoat 600 μg with 180 μg each drug, no or 100/200 μg BMA topcoat
[9] = tested on: human coronary artery smooth muscle cell proliferation; experiment: In vitro cell culture study, coronary artery smooth muscle cell proliferation (FIG. 51); type: cell-based
Source text: FIG. 51 is a graph of the inhibition of coronary artery smooth muscle cells by trichostatin A in a cell culture study.

in vivo elution from stent coating compared with rapamycin [5]: elutes more rapidly than rapamycin
Structure (SMILES): Nc1nc(Cl)nc2c1ncn2[C@H]1C[C@H](O)[C@@H](CO)O1 [Cladribine, 2-chlorodeoxyadenosine]
% of PDGF-stimulated increase in cell count ([1]; SMC, Cladribine 10.000 nM): −4% | potency on smooth muscle cells relative to endothelial cells ([1]; from IC50 values 23 and 40 nanomolar): approximately twice as potent | % of PDGF-stimulated increase in cell count [2]: 10% | effect of addition on the anti-proliferative rapamycin dose response curve [3]: potentiate the anti-proliferative activity of rapamycin | inhibition of human coronary artery smooth muscle cell proliferation ([3]; non-synchronized cells, two percent fetal bovine serum (FIG. 58)): completely inhibits | in vivo elution from stent coating over time [4]: after the first day, the elution of cladribine levels off significantly

Structure (SMILES): COc1cc([C@@H]2c3cc4c(cc3[C@@H](O[C@@H]3O[C@@H]5CO[C@@H](C)O[C@H]5[C@H](O)[C@H]3O)[C@H]3COC(=O)[C@H]23)OCO4)cc(OC)c1O [etoposide]
cytotoxicity in cell viability assay ([6]; concentrations up to ten micromolar): non-cytotoxic | effect of addition on the anti-proliferative rapamycin dose response curve [3]: potentiate the anti-proliferative activity of rapamycin | effect of addition on the anti-proliferative rapamycin dose response curve [7]: increases the percent inhibition of rapamycin alone

Structure (SMILES): COc1c(C)c2c(c(O)c1C/C=C(\C)CCC(=O)O)C(=O)OC2 [mycophenolic acid]
effect of addition on the anti-proliferative rapamycin dose response curve [3]: potentiates the anti-proliferative activity of rapamycin | in vivo release from stent coating compared with rapamycin [8]: elutes more completely over a shorter duration than the rapamycin

Structure (SMILES): CC[C@@]1(O)C(=O)OCc2c1cc1n(c2=O)Cc2cc3c(CN(C)C)c(O)ccc3nc2-1 [topotecan]
cytotoxicity in cell viability assay ([6]; concentrations up to one micromolar): non-cytotoxic | effect of addition on the anti-proliferative rapamycin dose response curve [7]: potentiate the anti-proliferative activity of rapamycin

Structure (SMILES): CC(/C=C/C(=O)NO)=C\[C@@H](C)C(=O)c1ccc(N(C)C)cc1 [trichostatin A]
inhibition of human coronary artery smooth muscle cell proliferation [9]: completely inhibit | IC50 ([9]; read-out: anti-proliferative IC50): ~6 nM
